Consider 6 molecules from patent US9902783B2, “Antibodies and pharmaceutical compositions containing same useful for inhibiting activity of metalloproteins” (Yeda Research and Development Co. Ltd., priority 2007, dated 2018).

The conditions of data set [1]: patients; cited from earlier work.
The next data set deals with metastasis. Conditions: phase III, advanced cancer patients; cited from earlier work.
Data set [2] has as its system cell surface gelatinolytic activity of HT1080 cells. The data set can be described thus: in situ zymography with DQ-gelatin. As to conditions: 15 μM SB-3CT. Format: cell-based, human. The method, then:
To localize net gelatinolytic activity of MMPs by in situ zymography, fluorescein isothiocyanate-labeled DQ gelatin that is intramolecularly quenched (Molecular Probes) was used as a substrate for degradation by gelatinases. Proteolysis by gelatinases yields cleaved fluorescein isothiocyanate-gelatin peptides and the localization of this fluorescence indicates the sites of net gelatinolytic activity. Briefly, Human fibrosarcoma HT1080 cells (which produce MMP-2, MMP-9 and MT1-MMP) were plated on 12-mm coverslips. […] Untreated cells served as negative control for this experiment. Cells were washed with PBS and then incubated with zymography reaction buffer (0.05 M Tris-HCl, 0.15 M NaCl, 5 mM CaCl2, and 0.2 mM NaN3, pH 7.6, the high concentration of azide prevented the gelatin from being phagocytosed and thus allowing cell surface gelatinolytic activity to occur) containing 60 ug/ml DQ gelatin at 37° C. overnight. […] At the end of the incubation period, without fixation or further washes, gelatinolytic activity of the MMPs was localized and photographed by fluorescence microscopy and images were acquired by Spot digital camera.
To confirm the inhibitory activity of anti CoTCPP mAb at cellular level, the effect of the antibody was examined on gelatinolytic activity of human fibrosarcoma HT1080 cells that constitutively secrete MMP-2 and 9 by in situ zymography. To localize gelatinolytic activity of MMPs by in situ zymography, fluorescein isothiocyanate-labeled gelatin that is intramolecularly quenched (DQ-gelatin) was used as substrate. Proteolysis by gelatinases yields cleaved fluorescein isothiocyanate-gelatin peptides and the localization of this fluorescence indicates the sites of net gelatinolytic activity.

The target in a further data set is MT1-MMP (Homo sapiens, UniProt P50281). Conditions: cited from earlier work.
For data set [3] the following is noted: peptide-based hydroxamate; cited from earlier work.
The next data set addresses TACE (ADAM-17) (Homo sapiens, UniProt P78536). The data set can be described thus: kinetic assay with fluorogenic peptide QF-45, TACE. Format: biochemical. As to conditions: Table 4.
Another data set addresses MT1-MMP (MMP-14) (Homo sapiens, UniProt P50281). In words: kinetic assay with fluorogenic peptide substrate, MT1-MMP. Format: biochemical. As to conditions: Table 4.
The subject of a further data set is MMP-2. The data set can be described thus: kinetic assay with fluorogenic peptide substrate, MMP-2. Format: biochemical, human.
In another data set the test system is MMP-9. In words: kinetic assay with fluorogenic peptide substrate, MMP-9. The class given is biochemical, human.
The nature of data set [4]: competitive ELISA, affinity of mAbs toward their immunizing hapten. Conditions: concentration of soluble hapten for 50% binding. The method, then: Supernatants of the growing hybridomas were screened for antibodies reactive with ZnTCPP, CoTCPP or Imisdp using direct ELISA in which respective hapten-BSA (3 μg/ml in PBS) was coated to Nunc maxisorp plates. The coating was performed at 4° C. overnight and incubation with antibodies at 20° C. for 1 h. HRP-conjugated anti-mouse mAb (Sigma) was used as the secondary antibody and 2,2′-azino-bis (3-ethylbenzthiazoline-6-sulphonic acid, ABTS, Sigma) was used as substrate. PBS containing 0.005% v/v Tween 20 (PBST) was used as washing reagent. The dilution buffer was PBS. A602 was recorded by microplate reader in […]luor Plus spectrometer (Tecan, Austria). As control supernatants were incubated with BSA coated plates in the same manner Absorbance values above 0.5 millioptical density were considered as positive.
Different dilutions of hybridoma supernatant were incubated with hapten-BSA coated plates following the steps described earlier. Titration curve was plotted and the titer dilution was determined at 50% of binding. Supernatants diluted to the titer concentration were preincubated with soluble ZnTCPP, CoTCPP or Imisdp compounds for 30 minutes and then transferred to hapten-coated microtiter plates following the steps described previously. The estimated dissociation constant was the concentration of soluble hapten required to attain 50% binding.

Chain of MMP-9 (P14780 107-444 limits assumed): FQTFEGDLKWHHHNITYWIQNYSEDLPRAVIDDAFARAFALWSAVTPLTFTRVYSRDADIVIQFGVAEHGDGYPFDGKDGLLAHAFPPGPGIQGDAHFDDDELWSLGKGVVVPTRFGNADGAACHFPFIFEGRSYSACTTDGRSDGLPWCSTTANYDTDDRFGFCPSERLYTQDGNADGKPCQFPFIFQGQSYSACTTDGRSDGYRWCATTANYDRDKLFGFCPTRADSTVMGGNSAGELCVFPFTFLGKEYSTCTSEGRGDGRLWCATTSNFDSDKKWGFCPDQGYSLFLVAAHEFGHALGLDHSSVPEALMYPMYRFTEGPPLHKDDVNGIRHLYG
Chain of TACE (ADAM-17) (P78536 215-824, species assumed): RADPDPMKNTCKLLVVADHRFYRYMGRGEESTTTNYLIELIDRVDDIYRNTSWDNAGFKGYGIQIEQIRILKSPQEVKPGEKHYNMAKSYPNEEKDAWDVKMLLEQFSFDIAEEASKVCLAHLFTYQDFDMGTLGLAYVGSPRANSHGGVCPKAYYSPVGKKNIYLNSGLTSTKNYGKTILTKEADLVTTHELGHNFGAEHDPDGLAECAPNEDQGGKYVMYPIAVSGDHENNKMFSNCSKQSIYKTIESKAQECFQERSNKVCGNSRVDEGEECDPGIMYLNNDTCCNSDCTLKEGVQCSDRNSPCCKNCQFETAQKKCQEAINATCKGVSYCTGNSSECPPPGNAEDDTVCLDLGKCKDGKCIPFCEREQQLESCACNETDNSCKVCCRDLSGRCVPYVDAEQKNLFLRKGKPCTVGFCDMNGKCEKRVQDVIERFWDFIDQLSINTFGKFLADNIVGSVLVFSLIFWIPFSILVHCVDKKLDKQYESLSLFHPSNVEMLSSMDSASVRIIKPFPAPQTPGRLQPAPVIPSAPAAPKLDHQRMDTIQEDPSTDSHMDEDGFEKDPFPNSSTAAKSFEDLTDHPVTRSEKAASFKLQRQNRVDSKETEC

As for `O=C(C[C@H](CSc1ccccc1)C(=O)O)c1ccc(-c2ccc(Cl)cc2)cc1` [BAY12-9566], the severe side effects entry in [1] is “liver abnormalities, anemia, shoulder and back pain, thrombocytopenia, nausea, fatigue, diarrhea and deep vein thrombosis”. Also, the “clinical efficacy in inhibiting metastasis” value with metastasis is listed as “no clinical efficacy”.

Consider `O=S(=O)(CC1CS1)c1ccc(Oc2ccccc2)cc1` (stereo not drawn) [SB-3CT, reference compound], for which the “cell surface gelatinolytic activity” value in data set [2] is “inhibition observed”. Further, the Ki on MT1-MMP is 0.11 µM.

As to `CNC(=O)[C@H](Cc1ccccc1)NC(=O)[C@H](CC(C)C)[C@H](CSc1cccs1)C(=O)NO` [batimastat], the “metabolic stability and oral bioavailability” value in data set [3] is on record as “low”.

Take `CNC(=O)[C@@H](NC(=O)[C@H](CC(C)C)[C@H](O)C(=O)NO)C(C)(C)C` [marimastat]: the severe side effects result in data set [1] is reported as “muscoloskeletal problems”. Also, in the data set on metastasis, the “clinical efficacy in inhibiting metastasis” value is given as “no clinical efficacy”.

Consider `COc1ccc(S(=O)(=O)N(Cc2cccnc2)[C@@H](C(=O)NO)C(C)C)cc1` [CGS27023A], for which the severe side effects entry in data set [1] was “widespread maculopapular rash”.

B1: 15E12: monoclonal antibody, IgG2a, raised against the hapten ZnTCPP (antibody)
heavy: EGPGLVAPSQSLSITCTVSGISLSSYDISWIRQPPGKGLEWLGVMETWSGGGTENYNSAFMETSRLSISKDNSKRQVFLNMETNSVQIDDTATYYCIGRLHYYGYWFLDVWDQG
light: EMETTQTPLSLPVSLGDQASISCRSSQSIVQSNGNTYLDWYLQKPGQSPKLLIYKVSNERFSGVPDRFSGSGSGTDFTLKISRVEADDLGVYYCFQGSHVPYTFGGG
modifications: 15E12 mAb heavy chain; 15E12 mAb light chain
notes: monoclonal antibody, IgG2a, raised against the hapten ZnTCPP
Regarding B1, the half-maximal inhibitory concentration (IC50) with TACE (ADAM-17), with MT1-MMP (MMP-14), in the data set with MMP-2 (Table 4) and in the data set with MMP-9 (Table 4) was more than 30 µM each time. Moreover, the “inhibition of proteolytic activity of MMP-2” value in the data set with MMP-2 (continuous fluorometric assay) is given as “did not show inhibitory effect”. In the data set on MMP-9 (continuous fluorometric assay), the “inhibition of proteolytic activity of MMP-9” value is “did not show inhibitory effect”. Further, in data set [4], the Kd amounted to 0.01 µM.
